Results on 16 compounds are retold here after patent publication US20110045101A1, “FUNGICIDAL SUBSTITUTED AZOLES” (E.I. Du Pont De Nemours and Company, priority 2009, published 2011).

Marks after values point to notes of the source that are not given here.

As a reminder, the pest or weed control is how far the test organism was held down.

Holding throughout (assay type): in vivo
One assay deals with Botrytis cinerea. Kind of assay: Test C: tomato Botrytis on tomato seedlings, sprayed the day before inoculation, visual disease rating. The settings on record: 100 = 100% disease control; for pest or weed control at 200 ppm: Botrytis cinerea, 120 h. From the text: General protocol for preparing test suspensions for Tests A-J: The test compounds were first dissolved in acetone in an amount equal to 3% of the final volume and then suspended at the desired concentration (in ppm) in acetone and purified water (50/50 mix) containing 250 ppm of the surfactant Trem® 014 (polyhydric alcohol esters). The resulting test suspensions were then used in tests A-J. Spraying a 200 ppm test suspension to the point of run-off on the test plants was the equivalent of a rate of 500 g/ha. […] The test suspension was sprayed to the point of run-off on tomato seedlings. […] A dash (-) indicates no test results. All results are for 200 ppm except where followed by “*”, which indicates 40 ppm.

The subject of assay [1] is Puccinia recondita f. sp. tritici. The assay can be described thus: Test I: wheat leaf rust on wheat seedlings, sprayed the day before inoculation, visual disease rating. The settings on record: 100 = 100% disease control; for pest or weed control at 200 ppm: Puccinia recondita, 168 h. The source says: (§1) General protocol for preparing test suspensions for Tests A-J: The test compounds were first dissolved in acetone in an amount equal to 3% of the final volume and then suspended at the desired concentration (in ppm) in acetone and purified water (50/50 mix) containing 250 ppm of the surfactant Trem® 014 (polyhydric alcohol esters). The resulting test suspensions were then used in tests A-J. Spraying a 200 ppm test suspension to the point of run-off on the test plants was the equivalent of a rate of 500 g/ha. […] The test suspension was sprayed to the point of run-off on wheat seedlings. […] A dash (-) indicates no test results. All results are for 200 ppm except where followed by “*”, which indicates 40 ppm.

The next assay has as its system Alternaria solani. The assay can be described thus: Test D: tomato early blight, sprayed the day before inoculation, visual disease rating. The settings on record: 100 = 100% disease control; for pest or weed control at 200 ppm: Alternaria solani, 168 h.
From the text: as §1

Assay [2] deals with Erysiphe graminis f. sp. tritici. The assay can be described thus: Test J: wheat powdery mildew on wheat seedlings, sprayed the day before inoculation, visual disease rating. The settings on record: 100 = 100% disease control; for pest or weed control at 200 ppm: Blumeria graminis, 168 h.
From the text: as §1

The subject of another assay is Septoria nodorum. Kind of assay: Test F: wheat glume blotch on wheat seedlings, sprayed the day before inoculation, visual disease rating. The settings on record: 100 = 100% disease control; for pest or weed control at 200 ppm: Parastagonospora nodorum, 264 h.
From the text: as §1

For another assay, the system named is Septoria tritici. The assay can be described thus: Test G: wheat leaf blotch on wheat seedlings, sprayed the day before inoculation, visual disease rating. The following applies: 100 = 100% disease control; for pest or weed control at 200 ppm: Zymoseptoria tritici, 504 h. The source says: General protocol for preparing test suspensions for Tests A-J: The test compounds were first dissolved in acetone in an amount equal to 3% of the final volume and then suspended at the desired concentration (in ppm) in acetone and purified water (50/50 mix) containing 250 ppm of the surfactant Trem® 014 (polyhydric alcohol esters). The resulting test suspensions were then used in tests A-J. Spraying a 200 ppm test suspension to the point of run-off on the test plants was the equivalent of a rate of 500 g/ha. […] The test suspension was sprayed to the point of run-off on wheat seedlings. The following day the seedlings were inoculated with a spore suspension of Septoria tritici (the causal agent of wheat leaf blotch) and incubated in saturated atmosphere at 24° C. for 48 h, and then moved to a growth chamber at 20° C. for 19 days, after which time visual disease ratings were made. […] A dash (-) indicates no test results. All results are for 200 ppm except where followed by “*”, which indicates 40 ppm.

[3] abbreviates: 200 ppm, 0 = no control relative to controls.

Take `Fc1ccc(-c2c(Cl)nnn2-c2ccc(Cl)cc2)c(F)c1` [Compound 24, 4-chloro-1-(4-chlorophenyl)-5-(2,4-difluorophenyl)-1H-1,2,3-triazole]: the pest or weed control at 200 ppm in the assay with Botrytis cinerea (setting [3]) is 90%; in assay [1] (setting [3]), 28%; with Alternaria solani (setting [3]) it was 0%; in assay [2] (setting [3]), 95%; in the assay with Septoria nodorum (setting [3]) it was 0%; with Septoria tritici (setting [3]), 67%.

Regarding `C#Cc1nc(Cl)c(-c2c(F)cccc2F)n1-c1cccc(F)c1` [Compound 47, 4-chloro-5-(2,6-difluorophenyl)-2-ethynyl-1-(3-fluorophenyl)-1H-imidazole], the pest or weed control at 200 ppm turned out to be 94% with Botrytis cinerea (setting [3]); 54% in assay [1] (setting [3]); 42% in the assay with Alternaria solani (setting [3]); 93% in assay [2] (setting [3]); 0% in the assay on Septoria nodorum (setting [3]); 77% in the assay with Septoria tritici (setting [3]).

Take `N#Cc1nc(Cl)c(-c2c(F)ccc(F)c2F)n1-c1ccc(Cl)cc1` [Compound 57, 4-chloro-1-(4-chlorophenyl)-5-(2,3,6-trifluorophenyl)-1H-imidazole-2-carbonitrile]: the pest or weed control at 200 ppm with Botrytis cinerea (setting [3]) turned out to be 84%; in assay [1] (setting [3]), 96%; in the assay on Alternaria solani (setting [3]), 99%; in assay [2] (setting [3]), 100%; in the assay on Septoria nodorum (setting [3]) it was 0%; in the assay on Septoria tritici (setting [3]) it was 87%.

As to `Cc1nn(C)c(-c2c(F)cccc2F)c1-c1cccc(F)c1` [Compound 60, 5-(2,6-difluorophenyl)-4-(3-fluorophenyl)-1,3-dimethyl-1H-pyrazole], the pest or weed control at 200 ppm with Botrytis cinerea (setting [3]) is 81%; in assay [1] (setting [3]), 0%; in the assay with Alternaria solani (setting [3]), 0%; in assay [2] (setting [3]) it was 0%; in the assay with Septoria nodorum (setting [3]), 0%; in the assay with Septoria tritici (setting [3]), 2%.

For `Cn1nc(Br)c(-c2c(F)cccc2F)c1-c1ccc(Cl)cc1` [Compound 125, 3-bromo-5-(4-chlorophenyl)-4-(2,6-difluorophenyl)-1-methyl-1H-pyrazole], the pest or weed control at 200 ppm was determined as 98% with Botrytis cinerea (setting [3]); 91% in assay [1] (setting [3]); 100% in the assay on Alternaria solani (setting [3]); 100% in assay [2] (setting [3]); 0% in the assay on Septoria nodorum (setting [3]); 92% with Septoria tritici (setting [3]).

On to `COc1cc(F)c(-c2c(Cl)ncn2-c2cccc(F)c2)c(F)c1` [Compound 246, 4-chloro-5-(2,6-difluoro-4-methoxyphenyl)-1-(3-fluorophenyl)-1H-imidazole], for which the pest or weed control at 200 ppm in the assay with Botrytis cinerea (200 ppm, 0 = no control) is 100%; in assay [1] (200 ppm, 0 = no control), 100%; in the assay on Alternaria solani (200 ppm, 0 = no control) it was 100%; in assay [2] (200 ppm, 0 = no control), 99%; in the assay with Septoria nodorum (200 ppm, 0 = no control) it was 95%; with Septoria tritici (200 ppm, 0 = no control), 93%.

For the compound `COc1cc(F)c(-c2c(Cl)nc(Br)n2-c2cccc(F)c2)c(F)c1` [Compound 256, 2-bromo-4-chloro-5-(2,6-difluoro-4-methoxyphenyl)-1-(3-fluorophenyl)-1H-imidazole], the pest or weed control at 200 ppm in the assay on Botrytis cinerea (200 ppm, 0 = no control) stood at 100%; in assay [1] (200 ppm, 0 = no control) it was 100%; in the assay on Alternaria solani (200 ppm, 0 = no control) it was 100%; in assay [2] (200 ppm, 0 = no control) it was 99%; in the assay with Septoria nodorum (200 ppm, 0 = no control) it was 100%; with Septoria tritici (200 ppm, 0 = no control) it was 97%.

Regarding `COc1cc(F)c(-c2c(Cl)nc(C)n2-c2cccc(F)c2)c(F)c1` [Compound 280, 4-chloro-5-(2,6-difluoro-4-methoxyphenyl)-1-(3-fluorophenyl)-2-methyl-1H-imidazole], the pest or weed control at 200 ppm in the assay on Botrytis cinerea (200 ppm, 0 = no control) was determined as 100%; in assay [1] (200 ppm, 0 = no control), 100%; in the assay on Alternaria solani (200 ppm, 0 = no control), 100%; in assay [2] (200 ppm, 0 = no control) it was 100%; in the assay on Septoria nodorum (200 ppm, 0 = no control), 100%; in the assay with Septoria tritici (200 ppm, 0 = no control) it was 95%.

Consider `COc1ccc(F)c(-c2c(Br)ncn2-c2ccc(F)cc2)c1F` [Compound 450, 4-bromo-5-(2,6-difluoro-3-methoxyphenyl)-1-(4-fluorophenyl)-1H-imidazole], for which the pest or weed control at 200 ppm in the assay on Botrytis cinerea (setting [3]) amounted to 97%; in assay [1] (setting [3]), 100%; with Alternaria solani (setting [3]), 100%; in assay [2] (setting [3]) it was 100%; in the assay on Septoria nodorum (setting [3]), 99%; in the assay on Septoria tritici (setting [3]), 97%.

Regarding `COc1cc(F)c(-c2c(C)nc(C)n2-c2ccc(Cl)c(F)c2)c(F)c1` [compound 44], the “Test C disease control rating” value with Botrytis cinerea (40 ppm (marked *)) is 99* %. Also, in assay [1] (40 ppm (marked *)), the “Test I disease control rating” value is on record as 99* %. For the same compound, the “Test D disease control rating” value with Alternaria solani (40 ppm (marked *)) is given as 100* %. Further, the “Test J disease control rating” value in assay [2] (40 ppm (marked *)) was 98* %. Also, the “Test F disease control rating” value in the assay on Septoria nodorum (40 ppm (marked *)) is reported as 40* %. In the assay on Septoria tritici (40 ppm (marked *)), the “Test G disease control rating” value is 92* %.

For the compound `COc1cc(F)c(-c2c(C)ncn2-c2ccc(Cl)c(F)c2)c(F)c1` [compound 46], the “Test C disease control rating” value in the assay on Botrytis cinerea (40 ppm (marked *)) was 86* %. In addition, the “Test I disease control rating” value in assay [1] (40 ppm (marked *)) is reported as 26* %. In addition, the “Test D disease control rating” value in the assay with Alternaria solani (40 ppm (marked *)) was 97* %. Besides, the “Test J disease control rating” value in assay [2] (40 ppm (marked *)) is 78* %. For the same compound, the “Test F disease control rating” value with Septoria nodorum (40 ppm (marked *)) is recorded as 0* %. Also, the “Test G disease control rating” value in the assay on Septoria tritici (40 ppm (marked *)) is reported as 83* %.

Take `Cc1nc(Cl)c(-c2c(F)ccc(F)c2F)n1-c1ccc(Cl)cc1` [compound 48]: the “Test C disease control rating” value in the assay on Botrytis cinerea (setting [3]) turned out to be 99%. In addition, the “Test I disease control rating” value in assay [1] (setting [3]) turned out to be 100%. The “Test D disease control rating” value in the assay with Alternaria solani (setting [3]) was 100%. The “Test J disease control rating” value in assay [2] (setting [3]) came to 100%. Further, the “Test F disease control rating” value with Septoria nodorum (setting [3]) was 100%. The “Test G disease control rating” value in the assay on Septoria tritici (setting [3]) came to 94%.

As to `Cc1nc(Cl)c(-c2ccc(F)cc2Cl)n1-c1ccc(Cl)cc1` [compound 49], the “Test C disease control rating” value in the assay with Botrytis cinerea (setting [3]) was found to be 98%. In addition, in assay [1] (setting [3]), the “Test I disease control rating” value is given as 99%. For the same compound, the “Test D disease control rating” value in the assay on Alternaria solani (setting [3]) was found to be 100%. For the same compound, the “Test J disease control rating” value in assay [2] (setting [3]) came to 99%. For the same compound, in the assay on Septoria nodorum (setting [3]), the “Test F disease control rating” value worked out at 100%. Further, in the assay on Septoria tritici (setting [3]), the “Test G disease control rating” value was found to be 94%.

Consider `Fc1ccc(F)c(-c2c(Cl)nc(Br)n2-c2ccc(Cl)cc2)c1F` [compound 50], for which the “Test C disease control rating” value in the assay with Botrytis cinerea (setting [3]) came to 98%. Besides, in assay [1] (setting [3]), the “Test I disease control rating” value was 100%. In addition, the “Test D disease control rating” value with Alternaria solani (setting [3]) came out at 100%. Further, the “Test J disease control rating” value in assay [2] (setting [3]) is listed as 100%. Further, the “Test F disease control rating” value in the assay with Septoria nodorum (setting [3]) is given as 100%. The “Test G disease control rating” value with Septoria tritici (setting [3]) is 92%.

With `Fc1ccc(-c2c(Cl)nc(Br)n2-c2ccc(Cl)cc2)c(Cl)c1` [compound 51], the “Test C disease control rating” value with Botrytis cinerea (setting [3]) was 94%. In assay [1] (setting [3]), the “Test I disease control rating” value came out at 97%. Further, the “Test D disease control rating” value in the assay on Alternaria solani (setting [3]) is recorded as 100%. The “Test J disease control rating” value in assay [2] (setting [3]) is 99%. Besides, the “Test F disease control rating” value in the assay with Septoria nodorum (setting [3]) came out at 100%. The “Test G disease control rating” value in the assay on Septoria tritici (setting [3]) stood at 94%.

Take `Fc1cccc(Cl)c1-c1c(Cl)nc(Br)n1-c1ccc(Cl)cc1` [compound 52]: in the assay with Botrytis cinerea (setting [3]), the “Test C disease control rating” value is listed as 84%. In addition, the “Test I disease control rating” value in assay [1] (setting [3]) came to 99%. Besides, in the assay with Alternaria solani (setting [3]), the “Test D disease control rating” value turned out to be 100%. In addition, the “Test J disease control rating” value in assay [2] (setting [3]) came out at 100%. In addition, the “Test F disease control rating” value in the assay with Septoria nodorum (setting [3]) was determined as 0%. The “Test G disease control rating” value with Septoria tritici (setting [3]) was 97%.
